Test results: US7781591B2, “Substituted 3-cyanopyridines as protein kinase inhibitors” (Wyeth LLC, priority 2006, dated 2010)

Target: T1, human PKCθ full length enzyme (Homo sapiens, UniProt Q04759)
T1 construct: human PKCθ full length enzyme (Panvera Cat# P2996); purchased Panvera P2996
Assay: PKCθ IMAP assay (fluorescence polarization)
Type: biochemical
Details: human PKCθ full length enzyme, IMAP; average value; read-out: IC50 PKCθ IMAP
Protocol: The reaction buffer was prepared by diluting the 5× stock reaction buffer and adding DTT to obtain a concentration of 3.0 mM. […] The final concentration of compound was 2× and 10% DMSO. DMSO was added to the rest of the master mix to increase the concentration to 10%. 10 μl of the master mix containing 10% DMSO was added to the rest of the wells on the plate except the 2nd column. 20 μl was transferred from the first column to the 2nd column. The compounds were serially diluted in 2:1 ratio starting from the 2nd column. A 2× ([…]) PKCθ solution was made in the reaction buffer. 10 μl of the PKCθ solution was added to every well to achieve these final concentrations: PKCθ—1 nM; ATP—6 μM; peptide—100 nM; DMSO—5%. Samples were incubated for 25 minutes at room temperature. The binding reagent was prepared by diluting the beads in 1× binding buffer to 800:1. 50 μl of the binding reagent was added to every well and incubated for 20 minutes. FP was measured using Envision2100 (PerkinElmer Life Sciences). Wells with no ATPs and wells with no enzymes were used as controls.

T1 sequence (Q04759 whole entry): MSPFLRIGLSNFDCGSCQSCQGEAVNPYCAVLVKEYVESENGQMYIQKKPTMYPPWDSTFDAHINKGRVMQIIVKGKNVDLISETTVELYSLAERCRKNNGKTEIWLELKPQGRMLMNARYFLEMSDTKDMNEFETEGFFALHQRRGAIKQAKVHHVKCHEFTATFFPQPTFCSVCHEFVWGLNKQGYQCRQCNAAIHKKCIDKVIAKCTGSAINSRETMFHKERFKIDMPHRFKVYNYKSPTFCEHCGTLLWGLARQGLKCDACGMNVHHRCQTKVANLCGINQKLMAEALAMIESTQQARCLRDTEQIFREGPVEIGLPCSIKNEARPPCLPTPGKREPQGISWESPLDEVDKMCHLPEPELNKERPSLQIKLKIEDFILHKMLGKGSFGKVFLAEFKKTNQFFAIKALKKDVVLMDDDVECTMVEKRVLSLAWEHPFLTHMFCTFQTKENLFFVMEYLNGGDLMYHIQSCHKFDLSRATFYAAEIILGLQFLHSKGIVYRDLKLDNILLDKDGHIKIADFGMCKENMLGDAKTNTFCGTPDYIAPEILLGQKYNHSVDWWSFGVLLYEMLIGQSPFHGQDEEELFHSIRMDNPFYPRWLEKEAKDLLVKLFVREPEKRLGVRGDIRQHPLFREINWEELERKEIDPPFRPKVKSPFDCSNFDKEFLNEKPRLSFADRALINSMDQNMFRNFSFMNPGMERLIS

| SMILES | IC50 |
| --- | --- |
| COc1ccc(-c2cncc(C#N)c2Nc2ccc3[nH]ccc3c2)cc1OCCN1CCOCC1 [Compound 230, 4-(1H-indol-5-ylamino)-5-[4-methoxy-3-(2-morpholin-4-ylethoxy)phenyl]nicotinonitrile] | 0.33 µM |
| COc1ccc(-c2cncc(C#N)c2Nc2ccc3[nH]ccc3c2)cc1OCCN1CCNCC1 [Compound 232, 4-(1H-indol-5-ylamino)-5-[4-methoxy-3-(2-piperazin-1-ylethoxy)phenyl]nicotinonitrile] | 0.2 µM |
| COc1ccc(-c2cncc(C#N)c2Nc2ccc3[nH]ccc3c2)cc1OCCN1CCSCC1 [Compound 233, 4-(1H-indol-5-ylamino)-5-[4-methoxy-3-(2-thiomorpholin-4-ylethoxy)phenyl]nicotinonitrile] | 0.18 µM |
| COc1ccc(-c2cncc(C#N)c2Nc2ccc3[nH]ccc3c2)cc1OCCN1CCCCC1 [Compound 235, 4-(1H-indol-5-ylamino)-5-[4-methoxy-3-(2-piperidin-1-ylethoxy)phenyl]nicotinonitrile] | 0.24 µM |
| COc1ccc(-c2cncc(C#N)c2Nc2ccc3[nH]ccc3c2)cc1OCCN(C)C [Compound 236, 5-{3-[2-(dimethylamino)ethoxy]-4-methoxyphenyl}-4-(1H-indol-5-ylamino)nicotinonitrile] | 0.2 µM |
| COc1ccc(-c2cncc(C#N)c2Nc2ccc3[nH]ccc3c2)cc1OCCN(CCO)CCO [Compound 237, 5-(3-{2-[bis(2-hydroxyethyl)amino]ethoxy}-4-methoxyphenyl)-4-(1H-indol-5-ylamino)nicotinonitrile] | 4.32 µM |
| COc1ccc(-c2cncc(C#N)c2Nc2ccc3[nH]ccc3c2)cc1OCCN1CCC(O)CC1 [Compound 238, 5-{3-[2-(4-hydroxypiperidin-1-yl)ethoxy]-4-methoxyphenyl}-4-(1H-indol-5-ylamino)nicotinonitrile] | 0.21 µM |
| COc1ccc(-c2cncc(C#N)c2Nc2ccc3[nH]ccc3c2)cc1OCCNCc1ccncc1 [Compound 240, 4-(1H-indol-5-ylamino)-5-(4-methoxy-3-{2-[(pyridin-4-ylmethyl)amino]ethoxy}phenyl)nicotinonitrile] | 0.08 µM |
| COc1ccc(-c2cncc(C#N)c2Nc2ccc3[nH]ccc3c2)cc1OCCNCc1ccco1 [Compound 245, 5-(3-{2-[(2-furylmethyl)amino]ethoxy}-4-methoxyphenyl)-4-(1H-indol-5-ylamino)nicotinonitrile] | 0.27 µM |
| COc1cc(Br)c(-c2cncc(C#N)c2Nc2ccc3[nH]ccc3c2)cc1OC [Compound 246, 5-(2-bromo-4,5-dimethoxyphenyl)-4-(1H-indol-5-ylamino)nicotinonitrile] | 0.16 µM |
| COc1ccc(-c2cncc(C#N)c2Nc2cccc3[nH]ccc23)cc1OCCN1CCCCC1 [Compound 248, 4-(1H-indol-4-ylamino)-5-[4-methoxy-3-(2-piperidin-1-ylethoxy)phenyl]nicotinonitrile] | 0.05 µM |
| COc1ccc(-c2cncc(C#N)c2Nc2ccc3[nH]ccc3c2)cc1OCCNCCCc1ccccc1 [Compound 250, 4-(1H-indol-5-ylamino)-5-(4-methoxy-3-{2-[(3-phenylpropyl)amino]ethoxy}phenyl)nicotinonitrile] | 0.02 µM |
| COc1ccc(-c2cncc(C#N)c2Nc2ccc3[nH]ccc3c2)cc1OCCNCCc1ccccn1 [Compound 251, 4-(1H-indol-5-ylamino)-5-(4-methoxy-3-{2-[(2-pyridin-2-ylethyl)amino]ethoxy}phenyl)nicotinonitrile] | 0.04 µM |
| COc1ccc(-c2cncc(C#N)c2Nc2ccc3[nH]ccc3c2)cc1OCCNCCc1cccnc1 [Compound 252, 4-(1H-indol-5-ylamino)-5-(4-methoxy-3-{2-[(2-pyridin-3-ylethyl)amino]ethoxy}phenyl)nicotinonitrile] | 0.03 µM |
| COc1ccc(-c2cncc(C#N)c2Nc2ccc3[nH]ccc3c2)cc1OCCNCCc1ccncc1 [Compound 253, 4-(1H-indol-5-ylamino)-5-(4-methoxy-3-{2-[(2-pyridin-4-ylethyl)amino]ethoxy}phenyl)nicotinonitrile] | 0.05 µM |
| CN(C)c1cccc(-c2cncc(C#N)c2Nc2cccc3[nH]ccc23)c1 [Compound 254, 5-[3-(dimethylamino)phenyl]-4-(1H-indol-4-ylamino)nicotinonitrile] | 0.08 µM |
| CS(=O)(=O)c1cccc(-c2cncc(C#N)c2Nc2cccc3[nH]ccc23)c1 [Compound 255, 4-(1H-indol-4-ylamino)-5-[3-(methylsulfonyl)phenyl]nicotinonitrile] | 0.08 µM |
| N#Cc1cncc(-c2ccccc2)c1Nc1ccc2[nH]ccc2c1 [Compound 257, 4-(1H-indol-5-ylamino)-5-phenylnicotinonitrile] | 0.1 µM |
| N#Cc1cncc(-c2ccsc2)c1Nc1ccc2[nH]ccc2c1 [Compound 258, 4-(1H-indol-5-ylamino)-5-(3-thienyl)nicotinonitrile] | 0.1 µM |
| N#Cc1cncc(-c2ccc3c(c2)OCO3)c1Nc1ccc2[nH]ccc2c1 [Compound 260, 5-(1,3-benzodioxol-5-yl)-4-(1H-indol-5-ylamino)nicotinonitrile] | 0.07 µM |
| N#Cc1cncc(-c2ccoc2)c1Nc1ccc2[nH]ccc2c1 [Compound 262, 5-(3-furyl)-4-(1H-indol-5-ylamino)nicotinonitrile] | 0.12 µM |
| N#Cc1cncc(-c2ccc3[nH]ccc3c2)c1Nc1ccc2[nH]ccc2c1 [Compound 263, 5-(1H-indol-5-yl)-4-(1H-indol-5-ylamino)nicotinonitrile] | 0.05 µM |

More lines, in order of falling IC50, values ahead:

| IC50 | SMILES |
| --- | --- |
| 1.37 µM | N#Cc1cncc(-c2cccnc2)c1Nc1ccc2[nH]ccc2c1 [Compound 259, 4-(1H-indol-5-ylamino)-3,3′-bipyridine-5-carbonitrile] |
| 0.25 µM | COc1ccc(-c2cncc(C#N)c2Nc2ccc3[nH]ccc3c2)cc1OCCN1CCN(C)CC1 [Compound 231, 4-(1H-indol-5-ylamino)-5-{4-methoxy-3-[2-(4-methylpiperazin-1-yl)ethoxy]phenyl}nicotinonitrile] |
| 0.23 µM | COc1ccc(-c2cncc(C#N)c2Nc2ccc3[nH]ccc3c2)cc1OCCNC1CCCC1 [Compound 243, 5-{3-[2-(cyclopentylamino)ethoxy]-4-methoxyphenyl}-4-(1H-indol-5-ylamino)nicotinonitrile] |
| 0.19 µM | CCN1CCN(CCOc2cc(-c3cncc(C#N)c3Nc3ccc4[nH]ccc4c3)ccc2OC)CC1 [Compound 234, 5-{3-[2-(4-ethylpiperazin-1-yl)ethoxy]-4-methoxyphenyl}-4-(1H-indol-5-ylamino)nicotinonitrile] |
| 0.17 µM | COc1ccc(-c2cncc(C#N)c2Nc2ccc3[nH]ccc3c2)cc1OCCNC1CCCCC1 [Compound 244, 5-{3-[2-(cyclohexylamino)ethoxy]-4-methoxyphenyl}-4-(1H-indol-5-ylamino)nicotinonitrile] |
| 0.1 µM | COc1cc(Br)c(-c2cncc(C#N)c2Nc2ccc3[nH]ccc3c2C)cc1OC [Compound 247, 5-(2-bromo-4,5-dimethoxyphenyl)-4-[(4-methyl-1H-indol-5-yl)amino]nicotinonitrile] |
| 0.08 µM | COc1ccc(-c2cncc(C#N)c2Nc2ccc3[nH]ccc3c2)cc1OCCNCc1cccnc1 [Compound 239, 4-(1H-indol-5-ylamino)-5-(4-methoxy-3-{2-[(pyridin-3-ylmethyl)amino]ethoxy}phenyl)nicotinonitrile] |
| 0.08 µM | COc1ccc(-c2cncc(C#N)c2Nc2ccc3[nH]ccc3c2)cc1OCCNCc1ccccn1 [Compound 241, 4-(1H-indol-5-ylamino)-5-(4-methoxy-3-{2-[(pyridin-2-ylmethyl)amino]ethoxy}phenyl)nicotinonitrile] |
| 0.08 µM | N#Cc1cncc(-c2ccncc2)c1Nc1ccc2[nH]ccc2c1 [Compound 261, 4-(1H-indol-5-ylamino)-3,4′-bipyridine-5-carbonitrile] |
| 0.03 µM | COc1ccc(-c2cncc(C#N)c2Nc2cccc3[nH]ccc23)cc1OCCNCCO [Compound 249, 5-(3-{2-[(2-hydroxyethyl)amino]ethoxy}-4-methoxyphenyl)-4-(1H-indol-4-ylamino)nicotinonitrile] |
| 0.02 µM | COc1ccc(-c2cncc(C#N)c2Nc2ccc3[nH]ccc3c2)cc1OCCNCCc1ccccc1 [Compound 242, 4-(1H-indol-5-ylamino)-5-(4-methoxy-3-{2-[(2-phenylethyl)amino]ethoxy}phenyl)nicotinonitrile] |
| 0.02 µM | CS(=O)(=O)Nc1cccc(-c2cncc(C#N)c2Nc2cccc3[nH]ccc23)c1 [Compound 256, N-{3-[5-cyano-4-(1H-indol-4-ylamino)pyridin-3-yl]phenyl}methanesulfonamide] |
| 0.008 µM | Cc1c(Nc2c(C#N)cncc2-c2cc3cc(CO)ccc3s2)ccc2[nH]ccc12 [Compound 229, 5-[5-(hydroxymethyl)-1-benzothien-2-yl]-4-[(4-methyl-1H-indol-5-yl)amino]nicotinonitrile] |
| 0.002 µM | Cc1c(Nc2c(C#N)cncc2-c2cc3cc(CN4CCCCC4)ccc3s2)ccc2[nH]ccc12 [Compound 228, 4-[(4-methyl-1H-indol-5-yl)amino]-5-[5-(piperidin-1-ylmethyl)-1-benzothien-2-yl]nicotinonitrile] |
| 0.001 µM | Cc1c(Nc2c(C#N)cncc2-c2cc3cc(C=O)ccc3s2)ccc2[nH]ccc12 [Compound 227, 5-(5-formyl-1-benzothien-2-yl)-4-[(4-methyl-1H-indol-5-yl)amino]nicotinonitrile] |
